Experimental data published in publication PMC9088798, “An Approach to Derive Functional Peptide Inhibitors of Transcription Factor Activity” (JACS Au, 2022).

Key:
cJun bZIP = assay: CD spectroscopy, binding to cJun bZIP (helicity of heterodimer); design: species or system human; settings: 20 °C, total peptide 10 μM equimolar, pH 7.4
From the text: Experiments were next undertaken to compare the binding of A-FosW and TBS-optimized HingeW to the cJun bZIP. CD spectroscopy was utilized to measure the global secondary structure of homo- and heterodimeric peptide samples, providing information on global α-helicity and thermal denaturation temperatures (Tm). The HingeW/cJun spectrum was 82% higher in α-helical content relative to the average of the two-component spectra (Figure 5A). […] This occurs as the total peptide concentration of the sample is kept constant (10 μM), meaning that the concentration of each component is halved upon mixing. If a sample component structure is unchanged upon mixing (i.e., no binding occurs), the CD signal for each component will average. The same, though smaller, trend was observed from the A-FosW/cJun spectra, where the α-helicity was 39% greater than the average (Figure 5B). This increased α-helical gain upon binding of HingeW/cJun implies a higher affinity interaction. Of note is that HingeW in isolation is 12.9% less helical relative to A-FosW. The AGADIR helical propensity calculator was used to calculate predicted helicity scores of 14.5 and 13.2 for A-FosW and HingeW, respectively.[42] […]
(§1) increased to the optimum 4 µM in subsequent passages. […] This allows the occurrence of library members to be monitored as winner sequences are selected for. […]

[1] = tested on: cJun bZIP / TRE sites in TRE-mDHFR gene; assay: TBS liquid culture growth competition HingeW vs A-FosW; assay type: cell-based, human cJun, expressed in E. coli; settings: equal numbers of cells with A-FosW or HingeW, selective M9 media, after three passages, DNA sequencing
Experimental: During the TBS library screening process, E. coli were transformed with the pooled DNA plasmid library such that each cell expressed a given member. Cells were plated onto M9 selective media and incubated until colonies expressing TBS active library members had formed. These colonies were pooled, and repeated liquid culture passages were undertaken under selective conditions to compete for library members against each other, enriching for the most TBS active sequences. At each stage of the assay, DNA sequencing was used to monitor the presence of TBS active sequences in the culture and inform on which residues were being selected at each position until one discrete DNA sequence was detected in the culture, referred to as HingeW (Figure 4). The residues selected in the winning HingeW peptide were universally found to be either acidic (D/E) or hydrophobic (V). Six of nine residues selected deviated from the parental A-FosW sequence with both V (E-to-V at e4 and c4, Q-to-V at f4) and E (L-to-E at a4, Q-to-E at e5, A-to-E at f5) newly selected in three positions. […]
as §1

LEQRAEELARENEELEKEAEELEQELDELQAEIEQLEERNYALRKEIEDLQKQLEKL [A-FosW, N-terminal AS and C-terminal GAP caps, 6xHis-tagged]
increase in α-helical content of heterodimer with cJun relative to average of component spectra (cJun bZIP; 150 mM potassium phosphate, 150 mM KF, 5 mM TCEP): 39% | Fraction helicity of heterodimer with cJun (cJun bZIP): 38.7% | outcome of direct competition in liquid culture [1]: outcompeted
